Data taken from US7244557B2, “Method of screening modulators of Nod1 signaling” (Regents of the University of Michigan, priority 2003, dated 2007).

target: T1, TLR2 (Homo sapiens, UniProt O60603); test: NF-κB activation assay, cells expressing TLR2 or TLR2 with TLR1 and/or TLR6; format: cell-based; conditions: 1 μg/ml
T1 construct: expressed in transfected cells; host or cells: HEK293T
Experimental: A) Structure of purified PGN fraction from B. subtilis (GM3P) and synthetic PGN-related compounds used in the study. B) Structure of MDP and four copies of GlcNAc-MurNAc with attached L-Ala-γ-D-Gln (4 mer) are indicated by closed and dotted boxes, respectively. C) The ability of cells were transfected with 0.3 ng pcDNA3-NOD1-Flag, 0.1 ng pcDNA3-Nod2 (NOD2) or vector control and reporter pBxIV-luc and pEF-BOS-β-gal plasmids to activate NF-κB. D) The ability of synthetic peptides, iE-DAP and iQ-DAP to stimulate NF-κB activation in the presence of control vector (−) and plasmids encoding NOD1 wild-type, mutant NOD1 lacking LRRs (NOD1ΔLRR) and NOD2. E) The ability of iE-DAP, iQ-DAP and sBLP (1 μg/ml) to activate NF-κB.
Reagents. LPS from S. typhimurium, intact and alkaline-detoxified LPS from E. coli O55:B5 as well as purified lipid A preparations of E. coli F583, MDP, DAP and dsRNA were obtained from Sigma-Aldrich (St. Louis, Mo.). PGN from S. aureus was from Fluka-Chemie (Buchs, Germany). Palmitoyl-Cys ((RS)-2,3-di(palmitoyloxy)-propyl)-Ala-Gly) (sBLP), was obtained from Bachem (Torrance, Calif.). The tetrameric form of the disaccharide dipeptide was described previously (Inohara et al., J. Biol. Chem. 278:5509 [2003]). iE-DAP and iQ-DAP, M3P and M4P were synthesized as described (Kitaura et al., J. Med. Chem. 25:335 [1982]) with small modification. Purification of PGN from B. subtilis 168 and C. flaccumfaciens with hydrolases, Cellosyl or recombinant AtlE (amidase domain) and the fractionation and purification of reduced B. subtilis PGN digested with Cellosyl were performed as previously described (Heilman et al., Mol. Microbiol. 24:1013 [1997]; Atrih et al., J. Bact. 181:3956 [1999]). Removal of proteins and reduction of LPS fraction. E. coli O55:B5 LPS (Sigma) was treated with proteinase K at 37° C. for 12 hr to digest contaminating proteins. […] The amino acid composition of E. coli O55:B5 LPS was determined using AccQ·Tag amino acid analysis system (Waters, Milford, Mass.) after hydrolysis at 110° C. for 24 hr. […]

T1 sequence (O60603 21-784, species assumed): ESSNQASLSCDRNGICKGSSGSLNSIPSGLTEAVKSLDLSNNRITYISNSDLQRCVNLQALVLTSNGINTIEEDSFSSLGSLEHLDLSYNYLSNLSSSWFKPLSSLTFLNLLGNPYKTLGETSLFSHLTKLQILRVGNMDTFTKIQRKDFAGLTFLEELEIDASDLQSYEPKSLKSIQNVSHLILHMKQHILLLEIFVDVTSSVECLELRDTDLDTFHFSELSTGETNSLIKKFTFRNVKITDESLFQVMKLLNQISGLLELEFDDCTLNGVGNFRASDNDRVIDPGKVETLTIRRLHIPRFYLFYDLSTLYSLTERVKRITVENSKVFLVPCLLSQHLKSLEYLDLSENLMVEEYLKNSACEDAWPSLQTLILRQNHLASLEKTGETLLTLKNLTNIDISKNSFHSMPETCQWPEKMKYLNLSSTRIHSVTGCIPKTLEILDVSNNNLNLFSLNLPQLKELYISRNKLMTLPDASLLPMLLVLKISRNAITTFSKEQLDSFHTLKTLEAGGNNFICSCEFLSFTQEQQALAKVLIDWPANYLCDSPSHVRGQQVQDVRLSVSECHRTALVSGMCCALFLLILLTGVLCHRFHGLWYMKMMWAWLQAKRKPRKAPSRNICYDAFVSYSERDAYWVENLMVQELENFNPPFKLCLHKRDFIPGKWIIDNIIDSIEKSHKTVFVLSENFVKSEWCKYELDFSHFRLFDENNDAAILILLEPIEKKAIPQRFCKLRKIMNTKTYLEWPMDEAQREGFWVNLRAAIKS

Substance	NF-κB activation via TLR2 or TLR2 co-expressed with TLR1 and/or TLR6
γ-D-glutamy-meso-diaminopimelic acid [iE-DAP]	not TLR2 or TLR2 co-expressed with TLR1 and/or TLR6
γ-D-Gln-DAP [iQ-DAP]	not TLR2 or TLR2 co-expressed with TLR1 and/or TLR6
Palmitoyl-Cys ((RS)-2,3-di(palmitoyloxy)-propyl)-Ala-Gly) [synthetic lipoprotein]	activated TLR2
